Laboratory results as given in PubChem BioAssay AID651851 (Broad Institute, 2012).
The source made the active and inactive calls. How the calls were made is not given here.

System: not listed separately
Experiment: growth inhibition of replicating M. tuberculosis, dose response, counter-screen, log phase (AID 651851)
Settings: Mycobacterium tuberculosis log-phase replicating growth inhibition
With `Clc1ccc(-c2nnc(SCc3cn(Cc4ccccc4)nn3)o2)cc1` the outcome was “inactive”.
In the case of `Fc1ccc(Cn2cc(CSc3nnc(-c4ccc(Cl)cc4)o3)nn2)cc1`, the outcome is reported as “inactive”.

System: Mycobacterium tuberculosis log-phase replicating growth inhibition
Experiment: as above
Settings: not given
Work on `O=S(Cc1cn(Cc2ccc(F)cc2)nn1)c1nnc(-c2ccc(Cl)cc2)o1` (stereo not drawn) yielded an IC90 of 62 µM.
In the case of `c1ccc(CSc2nnc(-c3ccccc3)o2)cc1`, the IC90 is reported as 250 µM.
Work on `O=S(Cc1ccccc1)c1nnc(-c2ccccc2)o1` (stereo not drawn) yielded an IC90 of 31 µM.
In the case of `O=S(Cc1cn(Cc2ccccc2)nn1)c1nnc(-c2ccc(Cl)cc2)o1` (stereo not drawn), the IC90 is reported as 62 µM.
With `O=S(=O)(Cc1ccccc1)c1nnc(-c2ccccc2)o1` the IC90 was 62 µM.
Work on `O=S(=O)(Cc1cn(Cc2ccccc2)nn1)c1nnc(-c2ccc(Cl)cc2)o1` yielded an IC90 of 62 µM.
